Where “and” joins values, the source holds several entries; their conditions need not be identical. Equal entries are not always repeated.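 The compound was tested at five concentrations on cells cultured in 96-well plates, with a 48-hour exposure period. Here, GI50 denotes the concentration required for 50% inhibition of growth. TGI marks complete inhibition of growth.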 Where a SMILES comes first, the peptide text is derived from it. The star is where a group is joined. Boc = CC(C)(C)OC(=O)*
How the values were obtained:
Experiment in all cases: NCI tumour cell line growth inhibition, 48 h
[1] = system: MDA-N
[2] = system: LXFL 529 NSCLC
[3] = system: HOP-18 NSCLC
[4] = system: DMS 273 small cell lung
[5] = system: SNB-78 CNS
[6] = system: DLD-1 colon
[7] = system: M19-MEL melanoma
[8] = system: RXF-631 renal
[9] = system: SN12K1 renal
[10] = system: P388/ADR leukemia
[11] = system: P388 leukemia

| SMILES | TGI [1] | TGI [2] | TGI [3] | TGI [4] | TGI [5] | TGI [6] | TGI [7] | other results |
| --- | --- | --- | --- | --- | --- | --- | --- | --- |
| Cc1cc2cc3c(=O)[nH]c(=O)[nH]c3nc2cc1C | > 100 µM | – | – | – | – | – | – | – |
| Cc1ccc(S(=O)OCc2c(C)c(C)c(COS(=O)c3ccc(C)cc3)c(C)c2C)cc1 (stereo not drawn) | – | > 100 µM | > 100 µM | > 100 µM | > 100 µM | > 100 µM | > 100 µM | – |
| CC1(Br)Cc2ccccc2C1=O (stereo not drawn) | 18.2 µM | – | – | – | – | – | – | GI50 [1]: 4.45 µM |
| CC(C)=CCc1cc2c(cc1O)OC[C@H]1c3cc4c(cc3O[C@@H]21)OCO4 | > 100 µM | – | – | – | – | – | – | – |
| CSc1nc(NC2OC(COC(C)=O)C(OC(C)=O)C(OC(C)=O)C2OC(C)=O)c(N=CC=Nc2c(NC3OC(COC(C)=O)C(OC(C)=O)C(OC(C)=O)C3OC(C)=O)nc(SC)n(C)c2=O)c(=O)n1C (stereo not drawn) | > 100 µM | > 100 µM | > 100 µM | > 100 µM | > 93.7 µM | > 100 µM | > 100 µM | TGI [8]: > 100 µM |
| Nc1ccn(C2OC(CO)C(O)C2O)c(=O)n1 (stereo not drawn) | > 500 µM | > 500 µM | 250 µM | 344 µM | – | > 500 µM | > 500 µM | TGI [9]: > 500 µM; GI50 [3]: 77.1 µM; TGI [10]: 1.15 µM; TGI [11]: 1.81 µM; GI50 [7]: 15.6 µM |
| CN(C)CCSc1cc(-c2ccccc2)c2ccccc2n1 | 22.7 µM | – | – | – | – | – | – | – |
| C=CCN1CCC23c4c5ccc(O)c4OC2C(=NN=C2CCC4(O)C6Cc7ccc(O)c8c7C4(CCN6CC=C)C2O8)CCC3(O)C1C5 (stereo not drawn) | – | 88.7 µM | > 100 µM | 37.7 µM | 68 µM | > 100 µM | – | TGI [8]: 50.2 µM |
| CCN(CC)CCSc1c2ccccc2nc2c(OC)ccc(OC)c12 | – | > 21.3 µM | – | 25 µM | 22.3 µM | – | 38.2 µM | TGI [8]: 17.9 µM |
| COC(=O)c1cc2c(s1)-c1nccc3c1c(nc1ccccc13)C2=O | > 100 µM | – | – | – | – | – | – | GI50 [1]: 32.9 µM |
| S=c1[nH]c2c(Cl)c(Cl)c(Cl)c(Cl)c2[nH]1 | 51.4 µM | – | – | – | – | – | – | – |
| C/C(=N\NC(=S)N1CCCCCC1)c1ccccn1 | 1.5 µM | 0.19 µM and 0.405 µM | 0.927 µM and 6.14 µM | 1.69 µM and 2.13 µM | 13.7 µM | 1.38 µM and 4.44 µM | 1.06 µM and 0.687 µM | TGI [8]: 2.83 µM; GI50 [3]: 0.72 µM; GI50 [5]: 0.355 µM; GI50 [1]: 0.169 µM; GI50 [7]: 0.109 µM |
| C[Si](C)(C)/C(I)=C/CO | – | > 100 µM | 64.1 µM | 48.9 µM | 95.3 µM | – | 53.1 µM | TGI [8]: 83.8 µM |
| CC12CCC3c4ccc(O)cc4CCC3C1C/C(=N\O)C2O (stereo not drawn) | > 100 µM | – | – | – | – | – | – | – |
| CN(C)c1ncnc2c1ncn2CCn1cnc2c(N(C)C)ncnc21 | > 100 µM | – | – | – | – | – | – | – |
| COC(=O)C(C)NC(=O)C(CCSC)NC(=O)C(Cc1ccccc1)NC(=O)OC(C)(C)C (stereo not drawn) (Boc-Phe-Met-Ala-OMe; configuration not given here) | > 100 µM | – | – | – | – | – | – | GI50 [1]: 48.9 µg/mL |

| SMILES | TGI [1] | TGI [2] | TGI [3] | TGI [4] | TGI [5] | TGI [6] | TGI [7] | other results |
| --- | --- | --- | --- | --- | --- | --- | --- | --- |
| C=COC(=O)N[C@H]1CCc2cc(OC)c(OC)c(OC)c2-c2ccc(SC)c(=O)cc21 | < 0.01 µM | > 100 µM | > 100 µM | > 100 µM | > 100 µM | – | > 100 µM | – |
| C=C1C(=O)OC2CC(C)C(C(O)CC(C)O)=CCC12 (stereo not drawn) | 42.3 µM | – | – | – | – | – | – | – |
| C[Si](C)(C)/C(Br)=C\CCN1C(=O)CCC1=O | – | > 100 µM | > 100 µM | > 100 µM | > 100 µM | > 100 µM | > 100 µM | TGI [8]: > 100 µM |
| O=C(/C=C/C=C/c1ccccc1)c1ccccc1 | 30.4 µM | – | – | – | – | – | – | – |
| Oc1ccc2ccccc2c1N=Nc1ccc(Br)cc1 | > 100 µM | – | – | – | – | – | – | – |
| CCc1c(Cl)c(C)cc(O)c1Cl | 41.3 µM | – | – | – | – | – | – | – |
| CC(C)(C)[Si](C)(C)OC1C(=O)C[C@H]2CCCC[C@@H]12 (stereo partly drawn) | – | > 100 µM | > 100 µM | > 100 µM | > 100 µM | > 100 µM | > 100 µM | – |
| COC(=O)C1=C(C(=O)OC)C2=S(SC3=C2CCCC3)S1 (stereo not drawn) | – | 30 µM | – | 34.2 µM | – | > 100 µM | > 100 µM | – |
| [N-]=[N+]=N/C1=C/CCCCC(=O)C1 | – | > 100 µM | – | > 100 µM | > 100 µM | > 100 µM | > 100 µM | – |
| O=c1[nH]c2ccc(O)cc2o1 | > 100 µM | – | – | – | – | – | – | – |
| COc1ccc2c(c1)c[n+](C)c1c3cc(OC)c(OC)cc3ccc21 | 3.08 µM and 8.07 µM | 7.25 µM | 29.4 µM | 3.54 µM | 22.4 µM | 18 µM | 15.8 µM | – |
| COc1ccc(C2=C(c3ccc(OC)cc3)C(=O)N3CCCC3C2)cc1 (stereo not drawn) | > 100 µM | – | – | – | – | – | – | GI50 [1]: 12.2 µM |
| O=C1CCC(=O)c2c1c(O)c1ccncc1c2O | – | 30.2 µM | 60.5 µM | 37.7 µM | 38.4 µM | 28.1 µM | – | TGI [8]: 54.8 µM |
| CC(=O)N1CCC(=O)/C(=C/c2ccccc2)C1 | – | 47.2 µM | 51.2 µM | > 100 µM | > 100 µM | 66.2 µM | 58.3 µM | TGI [8]: > 100 µM |
| COC12OCCN(C)C1=CC(=O)C1=NNC(C)C12 (stereo not drawn) | – | > 100 µM | > 100 µM | > 100 µM | > 100 µM | > 100 µM | > 100 µM | TGI [8]: > 100 µM |

— PubChem BioAssay (NCI)
